Measurements from patent US11660326B2, “Bacterial-binding peptides for treatment of infectious diseases and related inflammatory processes” (priority 2018, dated 2023).

Key:
[1] = depending on the G− strain used; read-out: Kd of the LPS/Polymixin B interaction; cited from earlier work
[2] = Dynamic light scattering (DLS), hydrodynamic size of peptides in solution; type: physicochemical; details: 10 μg/mL in PBS, 25° C.
Protocol: FIG. 5. Analysis of the hydrodynamic size of CD6-derived peptides in solution. The dynamic light scattering (DLS) analysis of the hydrodynamic diameter of CD6 (PD1, PD2, PD3, and Pcons) and DMBT-1/SAG (pbs1) derived peptides (10 μg/mL) in PBS is shown. The y axis represents the relative intensity of the scattered light; the x axis denotes the hydrodynamic diameter of the particles present in the solution. One representative experiment of four performed is shown (left). The numeric values obtained for each peptide are also shown (right).
The hydrodynamic diameters of peptides (10 μg/mL in PBS) were measured at 25° C. in a Zetasizer Nano S from Malvern Instruments (Worcestershire, UK) equipped with a 633 nm HeNe laser, as described (Saenz A, et al., 2010, Fluidizing effects of C-reactive protein on lung surfactant membranes: protective role of surfactant protein A, FASEB J 24:3662-73). Four scans were recorded for each sample, and samples were analyzed in triplicate.

[3] = system: mouse splenocytes exposed to LPS; experiment: LPS-induced cytokine release by mouse splenocytes; type: cell-based, C57BL/6 mice; details: LPS 0.5 μg/mL, 48 h, peptide 0.5, 5 and 20 μg/mL
Protocol: FIG. 6. Effect of CD6-derived peptides on in vitro LIPS-induced cytokine release by mouse splenocytes. Total spleen cell suspensions (2×10^5) from C57BL/6 mice (n=7) were stimulated in triplicate for 48 h with LPS (0.5 μg/mL), in the presence or absence of increasing concentrations (0.5, 5, and 20 μg/mL) of CD6-derived peptides (PD1, PD2, PD3, and Pcons). Cytokine levels in culture supernatants were determined by ELISA and results expressed in pg/mL as mean±SD of triplicates. Viability was >75% at 48 h in all experimental conditions. Statistical analysis was performed using a 2-tailed Mann-Whitney test, with confidence intervals of 95% (*, P<0.05; **, P<0.01; ***, P<0.001).
Spleens from 6-8 week old C57BL/6 mice (Charles River) were disaggregated by filtering through a cell strainer and, after erythrocyte lysis, cells were resuspended in RPMI 1640 with L-glutamine (Lonza) plus 10% fetal calf serum (BioWest), 100 U/mL penicillin, 100 μg/mL streptomycin and 50 μM 2-(3 Mercaptoethanol (Merck). Cells (2×10^5) were stimulated for 48 h (at 37° C. in a humidified atmosphere with 5% CO2) in U-bottomed 96-well plates (Biofil) containing LPS (0.5 μg/mL; E. coli O111:B4), in the presence or absence of increasing peptides (0.5-20 μg/mL). Culture supernatants were harvested and mouse cytokines measured by ELISA following manufacturer's instructions (BD Biosciences OptEIA sets).

[4] = system: mice undergoing CLP-induced septic shock; experiment: Mouse survival following CLP-induced septic shock; type: in vivo, C57BL/6J mice; details: single 6 mg/kg i.v. at +1 h post CLP; FIG. 7
Protocol: FIG. 7. Comparative therapeutic effects of i.v. infused CD6-derived peptides on mouse survival following Cecal Ligation and Puncture (CLP)-induced sepsis. (A, B) C57BL/6J mice were i.v. infused with saline (n=25) or single 6 mg/kg doses of unlabeled CD6- (PD1, n=8; PD2, n=16; PD3, n=15; Pcons, n=12) or DMBT1 (pbs1, n=13) derived peptides at +1 h post CLP induction. A sham group (n=3) was included. In all cases average percent survival was analyzed over time for each group and compared with the saline-treated group using the long-rank t-test (*, P<0.05; **, P<0.01; ***, P<0.001).
FIG. 8. Dose-, time- and via-dependent effects of CD6.PD3 infusion on mouse survival following CLP-induced sepsis. (A) C57BL/6 mice were i.v. infused at +1 h post CLP with saline (n=26) or single increasing doses (3 mg/kg, n=13; 6 mg/kg, n=15; and 12 mg/kg, n=8) of CD6.PD3 peptide. (B) C57BL/6 mice were i.v. infused with saline (n=4) or 6 mg/kg CD6.PD3 at different times post CLP (+1 h, n=5; +3 h, n=5; +6 h, n=6). (C) C57BL/6J mice were i.v. (n=11) or i.p. (n=9) infused with 6 mg/kg CD6.PD3 peptide or saline (n=9) at +1 h post CLP. In all cases, average percent of survival was analyzed over time and compared with the saline-treated group using a log-rank t-test (n.s., not significant; *, P<0.05. **, P<0.01; ***, P<0.001).
FIG. 10. Additive effects of combined administration of CD6.PD3 plus Imipenem/Cilastatin on mouse survival following CLP-induced sepsis. C57BL/6J mice were therapeutically infused at +1 h post CLP with saline (n=36), CD6.PD3 (6 mg/kg i.v.; n=25), Imipenem/Cilastatin (I/C, 50 mg/kg/12 h i.p.; n=9) or a combination of the two later (I/C+PD3, n=11). In all cases average percent survival was analyzed over time for each group and compared to the I/C plus CD6.PD3 group using the long-rank t-test (**, P<0.02; ***, P<0.002).
Animal procedures were approved by the Animal Experimentation Ethical Committee, University of Barcelona. High-grade mortality (≥90% mortality within the first 48-72 h) CLP-induced septic shock was induced in 8-10 week old C57BL/6J male mice (20-25 g; Charles River) as previously reported (Martinez-Florensa M, et al., 2017, Protective Effects of Human and Mouse Soluble Scavenger-Like CD6 Lymphocyte Receptor in a Lethal Model of Polymicrobial Sepsis, Antimicrob Agents Chemother 61:e01391-16).
Survival assays were analyzed by a Log-Rank χ^2 test using GraphPad Prism software. The significance of differences between experimental groups was determined by 2-tailed paired T test with 95% of confidence intervals (CI). P values were considered significant when P<0.05. Statistical analysis (mean±SEM) was performed using a 2-tailed Mann-Whitney test, with 95% of Cl.

[5] = Solid phase binding assay (ELISA) of biotin-labeled peptides to immobilized LPS; parameters: species or system E. coli; details: biotin-labeled peptide 5-20 μg/mL; LPS 5 μg/mL coated
Protocol: (§1) FIG. 3. Binding of biotin-labeled CD6-derived peptides to immobilized PAMPs from Gram- and Gram+ origin. Increasing concentrations (5-20 μg/mL) of biotin-labeled CD6- (PD1, PD2, PD3 and cons), DMBT1- (pbs1), and CD5- (PD1) derived peptides were added to 96-well ELISA plates sensitized with E. coli 0111:B4 LPS (A) or S. aureus LTA (B) (5 μg/mL each in PBS). Following overnight incubation at 4° C. bound peptides or proteins were developed by addition of horseradish peroxidase (HRP)-labeled streptavidin and 3,3′,5,5′-tetramethylbenzidine (TMB) substrate and further readings at OD 405-620 nm. Results are expressed as mean±SD of duplicates from one representative experiment of three performed. Statistical analysis was performed by two-way ANOVA (*,P<0.05; **, P<0.01; ***, P<0.001).
(§2) Solid Phase Binding Assays. 96-well microtiter plates (Nunc, Roskilde, Denmark) were coated overnight at 4° C. with 5 μg/mL of purified LPS (E. coli 0111:B4, Sigma L2630) or LTA (S. aureus, Sigma L2515) in PBS, and then incubated for 2 h at room temperature in blocking solution (20 mM Tris-HCl pH 7.4 plus 0.05% Tween 20 and 1% BSA). Biotin-labeled peptides/proteins (2.5-20 μg/mL) were added and incubated overnight at 4° C. in blocking solution. After extensive washing, bound peptides/proteins were detected by the addition of horseradish peroxidase (HRP)-labeled streptavidin (1:5,000 dilution; DAKO) for 1 h at room temperature. Color was developed by adding 3,3′,5,5′-tetramethylbenzidine (TMB) liquid substrate (Sigma), and optical density read at 405-620 nm.

[6] = Solid phase binding assay (ELISA) of biotin-labeled peptides to immobilized LTA; parameters: species or system S. aureus; details: biotin-labeled peptide 5-20 μg/mL; LTA 5 μg/mL coated
Protocol: as §1, §2

[7] = cited from earlier work
[8] = system: pro-inflammatory cytokine (IL-1β, IL-6, TNF-α) release; details: cited from earlier work
[9] = system: mouse models of septic shock; details: cited from earlier work
[10] = Endotoxin adsorption on peptide/protein-coated Eupergit beads (LAL assay); details: 50 UI/mL LPS, 0-150 min, vs HSA- and rshCD5-coated controls
Protocol: FIG. 11. Endotoxin adsorption assays on immobilized CD6-derived peptides and proteins. Eupergit® beads coated with different CD6-derived peptides (PD2, PD3, and Pcons) (A) or proteins (rshCD5 and rshCD6) (B) were incubated for different periods of time (0, 30, 90 and 150 min) with a 50 UI/mL endotoxin solution. Limulus amoebocyte lysate activating activity (LAL activity) of supernatants was then monitored along time and the OD 405-620 nm represented. Beads coated with Human Serum Albumin (HSA) were used as negative controls. Shown are triplicates of a representative experiment from two independent performed. Statistical analysis was done by using the 2-tailed paired T test with 95% confidence interval (***, P<0.001).
Proteins or peptides (2.5 mg each) were immobilized via NH2 groups on macroporous acrylic EUPERGIT© beads (0.2 g; Röhm-Pharma GmbH, Germany) following a previously described protocol (Zimmermann M, et al., 1999, Endotoxin adsorbent based on immobilized human serum albumin. Clin Chem Lab Med 37:373-379). Peptide or protein-coated Eupergit® beads are obtained by incubation with stirring of the polymeric beads at room temperature with a solution of the peptides of the invention in sodium phosphate buffer 100 mM pH 8 for 24 hours. After incubation, the beads were washed 3 times with 3 M sodium chloride pH 7.0, 30 mM sodium phosphate buffer pH 4.0 and 30 mM sodium phosphate buffer pH 8.0. Finally, 154 mM sodium chloride solution pH 7.0 was added to the peptide or protein-coated beads.
LPS detection was performed by using the turbidimetric-kinetic Limulus Amebocyte Lysate (LAL) kit-QCL (50-650U, Lonza) following manufacturer's instructions. Protein/peptide-coated EUPERGIT® beads were incubated 1:1 (v:v) with the provided endotoxin solution (50 UI/mL) for different periods of time (0-150 min) at room temperature following manufacturer's instructions.

Molecule | hydrodynamic size, first (or single) peak [2] [nm] | hydrodynamic size, second peak [2] [nm] | survival [4] [%] | binding to immobilized LPS (ELISA) [5] | binding to immobilized LTA (ELISA) [6] | also measured
Polymixin B |  |  |  |  |  | Kd [1]: 0.1 to 0.9 µM
GRVEVLFRGSW (CD6 Pcon) [CD6.cons, reference compound] | 1636±6 | 5493±7 | 25 | dose-dependent binding | dose-dependent binding | IL-1β release [3]: dose-dependent inhibitory effects; IL-6 release [3]: dose-dependent inhibitory effects; IL-10 release [3]: not
GQLEVYLKDGW (CD5.PD1) |  |  |  | no significant binding | no significant binding | 
GRVEVLYRGSW (DMBT-1.pbs1) [DMBT1.pbs1, reference compound] | 169±5 | 617±4 | 23.07 | dose-dependent binding | dose-dependent binding | 
rshCD6: recombinant soluble form of human CD6, SEQ ID NO.: 10 (protein, rshCD6) DQLNTSSAESELWEPGERLPVRLTNGSSSCSGTVEVRLEASWEPACGALWDSRAAEAVCRALGCGGAEAASQLAPPTPELPPPPAAGNTSVAANATLAGAPALLCSGAEWRLCEVVEHACRSDGRRARVTCAENRALRLVDGGGACAGRVEMLEHGEWGSVCDDTWDLEDAHVVCRQLGCGWAVQALPGLHFTPGRGPIHRDQVNCSGAEAYLWDCPGLPGQHYCGHKEDAGAVCSEHQSWRLTGGADRCEGQVEVHFRGVWNTVCDSEWYPSEAKVLCQSLGCGTAVERPKGLPHSLSGRMYYSCNGEELTLSNCSWRFNNSNLCSQSLAARVLCSASRSLHNLSTPEVPASVQTVTIESSVTVKIENKESR |  |  |  |  |  | Kd affinities for bacterial PAMPs (LPS, LTA or PGN) [7]: in the nM range; pro-inflammatory cytokine (IL-1β, IL-6, TNF-α) release triggered by LPS or LTA/PGN [8]: down-modulates; lethal effects caused by LPS-induced septic shock ([9]; i.p. administration, mice (EP 2143436)): counteracts the lethal effects; serum levels of pro-inflammatory cytokines (IL-1β, IL-6 and TNF-α) ([9]; prophylactic infusion): significantly reduces; mortality ([9]; prophylactic infusion, endotoxin, whole bacteria and peritonitis models): significantly reduces mortality; endotoxin levels (LAL assay) [10]: reduced endotoxin levels
